“Also recorded” adds a separate entry of the source.

Common to all, as to format: cell-based, human
One series deals with MDA-MB-231 cells. Nature of the series: Aldolase A secretion and expression in MDA-MB-231 cells treated with purified azurin. As to conditions: MDA-MB-231, purified azurin 100 nM, 10 μM, 1 mM, 30 min. As to the method:
FIG. 18A-18G: Induction of aldolase A secretion by host cells in the presence of P. aeruginosa. 18A. […] Aldolase secretion varied between the co-cultures with cancer and normal cells. […] 18B Correlation between the aldolase A and azurin levels in co-cultures of P. aeruginosa with cancer or normal cells. […] Secretion of aldolase into the culture supernatant was assessed by western blot analysis. 18D P. aeruginosa (OD=0.3) was treated with purified aldolase A protein at concentrations of 1 nM, 10 nM, 100 nM, and 1 μM for 30 min. […] MDA-MB-231 (18E) and Mel-2 (18F) cells were treated with purified azurin protein at concentrations of 100 nM, 10 μM, and 1 mM for 30 min. […] 18G Aldolase A secretion in the presence of P. aeruginosa is distance-dependent. […]
Aldolase A gene expression in MDA-MB-231 (black bars) and Mel-2 (white bars) cells was determined by RT-PCR (22A). […] 22B: Intracellular levels of aldolase A were assessed by western blot analysis with an anti-aldolase A antibody. […]
Western blotting: After running the NuPAGE, proteins were transferred to PVDF membranes (BioRad Laboratories Inc, Hercules, CA) which were blocked in SuperBlock (T20 TBS buffer, Thermo Fisher) for one hour. […] The signal was detected using enhanced chemiluminescence (ECL, Thermo Fisher Scientific). Quantitative analysis of the bands was performed with a computer-assisted imaging densitometer (UN-SCAN-IT gel version 5.1). […]

For another series, the system named is DU145 cells. As to the kind of experiment: Annexin-V apoptosis assay by flow cytometry, DU145. As to conditions: DU145, 48 hr; Ptxl 1 nM, p28 50 μM, aurA/aurB 0.5-50 μM. As to the method: (§1) FIG. 7A-7D: Determination of apoptotic cell death. Prostate cancer cell lines (7A: LNCaP, 7B: DU145 and 7C: PC3) and normal prostate CRL11611 cells (7D) were exposed to the indicated agents for 48 hr and stained using apoptosis assay kits according to the manufacturer's instructions. The samples were analyzed by flow cytometry. Mean±SE (N=3).
(§2) After 48 hr, annexin-V apoptosis assays (Thermo Fisher Scientific) were conducted to detect apoptotic cells. At least 10,000 cells in each case were analyzed by FACS (RRC, UIC).

Series [1] relates to normal prostate CRL11611 cells. Nature of the series: Annexin-V apoptosis assay by flow cytometry, normal prostate CRL11611. As to conditions: normal CRL11611, 48 hr; Ptxl 1 nM, p28 50 μM, aurA/aurB 0.5-50 μM. As to the method:
as §1, §2

The test system of series [2] is SKOV-3 ovarian cancer cells. As to the kind of experiment: MTT cell viability assay, SKOV-3 ovarian cancer cells. The note with it: 24 hr. An excerpt: Cell viability was detected by MTT assays, and the control (PBS-treated) cells were considered 100% viable. Mean±SE (N=3). *P<0.05, **P<0.01, ***P<0.001.
Cell lines and culture: Human cancer and noncancer (immortalized and nonimmortalized) cell lines were obtained from the American Type Culture Collection [prostate cancer (PC3, DU145 and LNCaP), normal prostate (CRL11611), breast cancer (MCF-7), ovarian cancer (SK-OV3 adenocarcinoma), lung cancer (A549)]. MDD2 breast cancer cells (p53 dominant-negative) were provided courtesy of Dr Andrei V. Gudkov, Roswell Park Cancer Institute. 20 All cell lines were cultured in MEM-E (Invitrogen) supplemented with 10% heat-inactivated fetal bovine serum (Atlanta Biological, Inc.), 100 units/mL penicillin, and 100 μg/mL streptomycin at 37° C. in 5% CO2.
Cytotoxicity assay: The MTT assay was performed as we previously described (Cha et al., Cancer Research 2020, 80: 1615-1623).

Series [3] concerns PC3 prostate cancer cells. As to the kind of experiment: MTT cell viability assay, PC3 prostate cancer cells. (Tetrazolium dyes change colour on reduction, which living cells bring about.)
In series [4] the test system is LNCaP prostate cancer cells. As to the kind of experiment: MTT cell viability assay, LNCaP prostate cancer cells.

In the case of “azurin: 14 kDa periplasmic copper protein of 128 amino acids from P. aeruginosa; purified recombinant”, in the series with MDA-MB-231 cells, the “aldolase A gene expression and intracellular levels” value is recorded as “without increasing gene expression or intracellular levels of aldolase A”; the “aldolase A secretion into culture medium (western blot)” value was “secreted a considerable amount of human aldolase A”.

As to “LVN GGD DVA AAV NTA AQN NAD ALF VPPP (LVNGGDDVAAAVNTAAQNNADALFVPPP) [aurB]”, the apoptotic cell death result in the series with DU145 cells was “induced significant dose-dependent apoptosis”; in series [1], “less extent”. For the same substance, the “effect on p53-inactive cancer cells (MTT)” value in series [2] (SKOV3 (p53-null), 0.1-100 μM) is listed as “dose-dependent”; in series [3] (PC3 (p53-null), 0.1-100 μM, 24 hr), “dose-dependent”. Also, the “anti-proliferative effect (MTT cell viability)” value in series [2] (SKOV-3, 5-100 μM) is on record as “clear dose-dependent effects”. The “cytotoxic effect (MTT cell viability)” value is recorded as “significantly induced dose-dependent cytotoxic effects; also recorded: more sensitive than the normal prostate cell line” in series [3] (PC3 (p53-null, AR−), 24-72 hr, paclitaxel 1 nM) and “significantly induced dose-dependent cytotoxic effects; also recorded: more sensitive than the normal prostate cell line” in series [4] (LNCaP (p53 wild-type, AR+), 24-72 hr, paclitaxel 1 nM). The inhibition rate in series [3] (PC3, 100 μM for 72 hr) is given as around 50%; in series [4] (LNCaP, 100 μM for 72 hr), around 50%.

(Values after patent publication US20250179126A1, “A NOVEL PEPTIDE FROM A PHOTOSYNTHETIC BACERIUM DIRECTLY TARGETS MITOCHONDRIA TO TRIGGER APOPTOSIS IN ADVANCED PROSTATE CANCER CELLS” (priority 2022, published 2025).)
